# From patent US20230338378A1, “Methods of Administering Myosin Inhibitors” (MYOKARDIA, INC., priority 2022, published 2023)
# Key:
# [1] = tested on: CYP2C19, CYP3A4; assay: Established and Potentially Significant Pharmacokinetic Drug Interactions with MAVACAMTEN (Table 1); conditions: Concomitant use with a moderate to strong CYP2C19 inducer or a moderate to strong CYP3A4 inducer
# [2] = molecular target: P-gp (Homo sapiens, UniProt P08183); assay: In vitro transporter inhibition; type: in vitro ADME; conditions: In Vitro Studies
# Chain of P-gp (P08183 whole entry): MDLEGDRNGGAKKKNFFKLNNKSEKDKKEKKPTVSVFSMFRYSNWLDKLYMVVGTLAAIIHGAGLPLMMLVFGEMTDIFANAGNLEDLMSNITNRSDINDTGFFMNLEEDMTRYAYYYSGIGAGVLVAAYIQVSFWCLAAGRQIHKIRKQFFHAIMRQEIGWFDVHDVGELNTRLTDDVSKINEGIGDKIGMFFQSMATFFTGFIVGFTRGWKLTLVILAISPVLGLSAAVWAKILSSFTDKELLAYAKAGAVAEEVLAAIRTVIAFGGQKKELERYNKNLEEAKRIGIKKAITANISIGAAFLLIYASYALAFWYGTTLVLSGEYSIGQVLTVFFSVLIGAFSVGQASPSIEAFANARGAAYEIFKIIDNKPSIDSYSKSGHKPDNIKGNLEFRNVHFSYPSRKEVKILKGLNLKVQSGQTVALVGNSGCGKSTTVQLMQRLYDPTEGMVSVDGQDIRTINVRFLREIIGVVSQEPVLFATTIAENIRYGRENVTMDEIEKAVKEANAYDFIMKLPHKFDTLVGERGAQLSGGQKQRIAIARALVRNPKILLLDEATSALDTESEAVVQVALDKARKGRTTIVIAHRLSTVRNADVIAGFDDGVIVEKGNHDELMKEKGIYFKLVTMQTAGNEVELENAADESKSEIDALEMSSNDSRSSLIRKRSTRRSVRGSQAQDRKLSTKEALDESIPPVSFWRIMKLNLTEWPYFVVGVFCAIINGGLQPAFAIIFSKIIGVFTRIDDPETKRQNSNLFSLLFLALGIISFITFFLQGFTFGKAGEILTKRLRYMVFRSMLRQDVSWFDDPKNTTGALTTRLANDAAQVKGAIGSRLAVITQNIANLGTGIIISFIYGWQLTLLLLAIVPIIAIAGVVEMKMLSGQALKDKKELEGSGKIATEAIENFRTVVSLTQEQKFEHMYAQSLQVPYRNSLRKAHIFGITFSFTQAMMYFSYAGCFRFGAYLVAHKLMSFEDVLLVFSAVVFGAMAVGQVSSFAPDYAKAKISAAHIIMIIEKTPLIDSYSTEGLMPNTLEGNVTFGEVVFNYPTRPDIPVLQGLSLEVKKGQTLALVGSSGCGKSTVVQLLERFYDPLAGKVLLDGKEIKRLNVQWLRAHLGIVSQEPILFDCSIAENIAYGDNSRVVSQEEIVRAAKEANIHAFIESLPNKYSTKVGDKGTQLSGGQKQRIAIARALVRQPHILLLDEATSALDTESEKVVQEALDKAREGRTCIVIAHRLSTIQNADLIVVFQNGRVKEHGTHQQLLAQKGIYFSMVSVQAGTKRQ
# [3] = tested on: organic cation transporters (OCTs); assay: In vitro transporter inhibition; type: in vitro ADME; conditions: In Vitro Studies
# [4] = molecular target: CYP2C19 (Homo sapiens, UniProt P33261); assay: Metabolism through CYP enzymes
# Chain of CYP2C19 (P33261 whole entry): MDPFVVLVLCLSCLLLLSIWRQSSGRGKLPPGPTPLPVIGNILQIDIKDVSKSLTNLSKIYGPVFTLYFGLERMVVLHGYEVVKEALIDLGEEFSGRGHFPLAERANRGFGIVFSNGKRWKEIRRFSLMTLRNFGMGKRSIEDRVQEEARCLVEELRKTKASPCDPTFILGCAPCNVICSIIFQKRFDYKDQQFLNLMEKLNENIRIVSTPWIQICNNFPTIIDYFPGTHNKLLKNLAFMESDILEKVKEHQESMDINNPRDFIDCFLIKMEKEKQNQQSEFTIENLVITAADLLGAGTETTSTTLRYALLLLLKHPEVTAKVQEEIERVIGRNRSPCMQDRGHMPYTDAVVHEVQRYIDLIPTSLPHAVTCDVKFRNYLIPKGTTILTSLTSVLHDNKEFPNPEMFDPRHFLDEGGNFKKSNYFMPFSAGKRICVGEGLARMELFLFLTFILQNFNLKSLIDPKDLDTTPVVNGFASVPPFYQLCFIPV
# [5] = tested on: adults with symptomatic NYHA class II and III obstructive HCM; conditions: phase 3 EXPLORER-HCM, oHCM patient population (Olivotto et al., 2020); cited from earlier work
# [6] = molecular target: CYP3A4 (Homo sapiens, UniProt P08684); assay: In vitro CYP inhibition; type: in vitro ADME; conditions: In Vitro Studies; clinically relevant concentrations
# Chain of CYP3A4 (P08684 whole entry): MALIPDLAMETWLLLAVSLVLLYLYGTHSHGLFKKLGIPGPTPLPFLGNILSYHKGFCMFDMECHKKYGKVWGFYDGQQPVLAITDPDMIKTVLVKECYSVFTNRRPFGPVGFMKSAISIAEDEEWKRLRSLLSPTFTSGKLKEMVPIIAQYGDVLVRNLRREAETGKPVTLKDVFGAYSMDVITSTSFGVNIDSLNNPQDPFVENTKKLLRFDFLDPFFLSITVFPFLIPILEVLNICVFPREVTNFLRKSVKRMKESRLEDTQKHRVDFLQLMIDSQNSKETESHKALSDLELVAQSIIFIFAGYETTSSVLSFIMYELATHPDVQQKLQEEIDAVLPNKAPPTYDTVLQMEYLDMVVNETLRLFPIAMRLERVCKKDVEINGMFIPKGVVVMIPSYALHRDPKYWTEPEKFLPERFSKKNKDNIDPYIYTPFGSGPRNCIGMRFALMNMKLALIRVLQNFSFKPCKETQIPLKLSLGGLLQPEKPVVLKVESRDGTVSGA
# [7] = tested on: rat; assay: Rat in vivo micronucleus assay
# [8] = tested on: lymphocyte; assay: Human in vitro lymphocyte clastogenicity assay; type: cell-based
structure (smiles),measurement,setting,value
"CC(C)n1c(=O)cc(N[C@@H](C)c2ccccc2)[nH]c1=O [mavacamten, (S)-3-Isopropyl-6-((1-phenylethyl)amino)pyrimidine-2,4(1H,3H)-dione]",Clinical Impact on mavacamten exposure,[1],"moderate to strong CYP3A4 inducer decreases mavacamten exposure,"
same,inhibition of P-gp,[2],does not inhibit
same,inhibition of OCTs,[3],does not inhibit
same,metabolized through CYP2C19,[4],74%
same,"LVOT gradients, symptoms, exercise performance and health status",[5],"effective in reducing LVOT gradients and improving symptoms, exercise performance and health status"
same,inhibition of CYP3A4,[6],not an inhibitor
same,genotoxicity,[7],not genotoxic
same,genotoxicity,[8],not genotoxic
